# Reference: US20250387351A1 (SpringWorks Therapeutics, Inc, priority 2024, published 2025)
# Tests used:
# [1] = test system: NF1-associated inoperable plexiform neurofibromas (PNs); assay: Phase 2b trial: response of target PN by BICR volumetric MRI per REiNS criteria; assay type: in vivo, human; conditions: for Confirmed Objective Response Rate per REiNS criteria by BICR, n (%): 24-cycle treatment phase, BSA-based BID dose, 3 weeks on/1 week off; for Confirmed Partial Response, n (%): PR = ≥20% reduction in PN volume; for DoR ≥12 months: Kaplan-Meier based, data cut-off September 2023
# Protocol: Participants were screened (assessed for eligibility as described below). […] The median age was 34.5 years (range 18 to 69 years); 85% were white and 64% were female. […] The most commonly reported morbidities were pain (90%) and disfigurement or major deformity (52%).
# The median age was 10 years (range 2 to 17 years); 66% were white and 54% were female. […] The most commonly reported morbidities were pain (70%) and disfigurement or major deformity (50%).
# Study treatment was administered orally at a twice daily (BID) dose specified in the table below. Dosing was on a 28-day Cycle (4-week course) with a 3 week on/1 week off schedule. The treatment period will last for up to 24 Cycles followed by a 30-day Safety Follow-Up period.
# A partial response was defined as PN decrease ≥20% compared to baseline using centrally read MRI volumetric analysis.
# The major efficacy outcome measure was confirmed objective response rate (ORR), defined as the percentage of patients with complete response (disappearance of the target PN) or confirmed partial response (≥20% reduction in PN volume confirmed at a subsequent tumor assessment within 2-6 months during the 24-cycle treatment phase). Responses were assessed by blinded independent central review (BICR) using volumetric magnetic resonance imaging (MRI) analysis per Response Evaluation in Neurofibromatosis and Schwannomatosis (REiNS) criteria. A secondary efficacy objective was to determine the duration of response for patients who achieved a confirmed objective response.
# [2] = Pharmacokinetic parameters and characteristics of mirdametinib (Table A); assay type: in vivo, human
# [3] = geometric least squares mean ratio, food effect
smiles,measurement,setting,value
"O=C(NOC[C@H](O)CO)c1ccc(F)c(F)c1Nc1ccc(I)cc1F (single isomer, unassigned) [mirdametinib]","Confirmed Complete Response, n (%)",[1]; Adult (N = 58),0 n (%)
same,"Confirmed Objective Response Rate per REiNS criteria by BICR, n (%)",[1]; Adult (N = 58),24 (41) n (%)
same,"Confirmed Partial Response, n (%)",[1]; Adult (N = 58),24 (41) n (%)
same,DoR ≥12 months,[1]; Adult responders,18 (75%)
same,"Confirmed Complete Response, n (%)",[1]; Pediatric (N = 56),0 n (%)
same,"Confirmed Objective Response Rate per REiNS criteria by BICR, n (%)",[1]; Pediatric (N = 56),29 (52) n (%)
same,"Confirmed Partial Response, n (%)",[1]; Pediatric (N = 56),29 (52) n (%)
same,DoR ≥12 months,[1]; Pediatric responders,22 (76%)
same,median time to onset of response,[1]; adult cohort (range: 4.0 months to 19.0 months),7.8 months
same,ORR also considering confirmed objective responses after cycle 24,"[1]; adults (95% CI: 32, 59)",45%
same,median time to onset of response,[1]; pediatric cohort (range: 4.1 months to 18.8 months),7.9 months
same,ORR also considering confirmed objective responses after cycle 24,"[1]; pediatric patients (95% CI: 40, 67)",54%
same,Tmax [median (range)],[2]; Capsule,Capsule: 1.08 (0.00-4.17) hours post dose
same,Excretion: radioactivity in feces,[2]; In feces,In feces: 27%
same,Excretion: radioactivity in urine,[2]; In urine,In urine: 68%
same,Excretion: unchanged mirdametinib in urine,[2]; In urine,In urine: 0.7%
same,Excretion: unchanged mirdametinib in urine and feces,[2]; In urine and feces,In urine and feces: 9%
same,Tmax [median (range)],[2]; Tablet,Tablet: 0.83 (0.42-3.02) hours post dose
same,Food effect [GMR % (90% CI)] AUCinf,[2]; [3],"93% (90%, 96%)"
same,Food effect [GMR % (90% CI)] Cmax,[2]; [3],"57% (54%, 61%)"
same,Time to steady-state,[2]; in vivo,Approximately 6 days
